Patent publication US10081812B2, “D-amino acid-inducible gene expression system for Rhodosporidium and Rhodotorula” (TEMASEK LIFE SCIENCES LABORATORY LIMITED, priority 2015, dated 2018)

Assays:
[1] = test system: DAO1 mRNA; experiment: qRT-PCR of DAO1 mRNA transcripts in R. toruloides cells; assay type: cell-based
Method: (§1) For gene induction studies, modified MinAB (MinABs) (28) with carbon source and nitrogen source (NH4NO3) omitted was used as basal medium. Carbon source (10 g/L glucose, 70 mM L-alanine or D-alanine) and nitrogen source (70 mM ammonium sulfate, L-alanine or D-alanine) were supplemented as required. For stress treatments, YPD broth was used as the basal medium and cultured after supplementation of various chemicals, or in harsh conditions. Unless indicated otherwise, cell cultures were conducted in a rotary shaker under 28° C. and 250 rpm.
Total RNA was treated with DNase I (Roche Diagnostics) and recovered by ethanol precipitation to remove the trace DNA. cDNA was synthesized using the iScript™ Reverse Transcription Supermix for RT (Bio-Rad, USA) and real-time PCR was conducted in ABI PRISM 7900HT Sequence Detection System (Life Technologies, USA) using the ABI SYBR® Select Master Mix (Life Technologies, USA). PCR conditions were as followed: an initial 50° C. for 2 min and 95° C. denaturation step for 10 min followed by 40 cycles of denaturation at 95° C. for 15 s, annealing at 60° C. for 1 min. Triplicates were used for all qRT-PCR analyses. The data was acquired using the software SDS 2.4 (Applied Biosystems, Life Technologies, USA) and relative gene expression was calculated against the reference gene ACT1 (nucleotide sequence: SEQ ID NO:89; amino acid sequence: SEQ ID NO:90) with the 2-ΔΔCt method through the RQ Manager software v1.2.1 (Applied Biosystems, USA).
To investigate the regulation DAO1 gene expression, the mRNA level in cells cultured in YPD medium supplemented with D-alanine or L-alanine levels was quantitated by qRT-PCR using the Actin mRNA (ACT1) as the reference. As expected, DAO1 mRNA expression was negligible when cells were cultured in MinABs medium supplemented with L-alanine or ammonium sulfate as the sole nitrogen source (FIG. 4B).

[2] = test system: DAO1 promoter (PDAO1in); experiment: Luciferase reporter assay of 2.2 kb intron 1-containing DAO1 promoter (PDAO1in) reporter strains; assay type: cell-based, R. toruloides; settings: for induction of DAO1 promoter by D-amino acid: 70 mM as the sole carbon and nitrogen source in MinABs, 21 h induction, FIG. 8
Method: as §1
Yeast strains transformed with PDAOinx::RtLUC2 cassettes were cultured in YPD broth to mid-exponential phase. Cells were water-washed twice and resuspended in MinABs plus 70 mM of either D-alanine or L-alanine to a cell optical density at 600 nm (OD600) of 0.5 and continued culturing at 30° C., 250 rpm for 21 hr. Cells were harvested, washed and resuspended in PBS buffer supplemented with 1 mM DTT, 3 mM β-mercaptoethanol and 1 mM PMSF (pH7.4) supplemented with equal volume of 0.5 mm glass beads (Sigma-Aldrich, USA), and lysed with FastPrep 24™ 5 G (MP Biomedicals, Irvine, Calif., USA) for 40 seconds. The protein concentration and luciferase activity was determined using Bradford method and a commercial luciferase assay kit (Promega, USA) under the supplier's protocol, respectively. All data was measured and acquired with the Infinite M200 plate reader coupled with the iCycler software (version 3.0, Tecan, Salzburg, Austria). All experiments were performed in both biological and statistical triplicates. For determination of relative promoter activity (RPA), luminescence value was subtracted against the blank or negative control (promoter-less strain), normalized against the protein concentration, then normalized against either the values of PGPD1 or the maximum reading.
To investigate the effects of carbon and nitrogen sources on promoter activity, 3 strains with 2.2 kb intron 1-containing DAO1 promoter (PDAO1in) knocked in at the CAR2 locus were cultured in the modified MinAB medium (MinABs), which had glucose and ammonium sulfate supplemented to the basal medium MinAB when necessary.
Here, substrate selectivity of the 2.2 kb DAO1 promoter (PDAO1in) reporter strains was investigated on their inducibility by different D-amino acids.

[3] = test system: DAO1 mRNA transcripts / Dao1 protein; settings: induction with D-alanine; cited from earlier work

Compound: C[C@@H](N)C(=O)O [D-alanine]
- DAO1 mRNA level relative to control medium ([1]; 6-hr after D-alanine supplementation, both glucose and ammonium sulfate omitted, FIG. 4B): ~100 fold
- DAO1 mRNA level increase ([1]; cultured in the presence of 70 mM D-alanine, ACT1 reference, FIG. 4B): 12-18 folds
- induction of DAO1 promoter by D-amino acid [2]: most preferably induced
- luciferase expression among media ([2]; MinABs supplemented with 70 mM D-alanine only, FIG. 7A): Best luciferase expression
- concentration effective in driving expression of the reporter gene (as low as) ([2]; MinABs with 10 g/L glucose, FIG. 7B): 20 mM
- Dao1 protein share of the soluble intracellular proteins [3]: 1.0%
- time of peak of DAO1 mRNA transcripts after induction [3]: ≤ 12 h

Compound: CC(C)C[C@@H](N)C(=O)O [D-leucine]
- induction of DAO1 promoter by D-amino acid [2]: significantly less effective

Compound: CSCC[C@@H](N)C(=O)O [D-methionine]
- induction of DAO1 promoter by D-amino acid [2]: significantly less effective

Compound: N[C@H](Cc1ccccc1)C(=O)O [D-phenylalanine]
- induction of DAO1 promoter by D-amino acid [2]: significantly less effective

Compound: O=C(O)[C@H]1CCCN1 [D-proline]
- induction of DAO1 promoter by D-amino acid [2]: similarly effective

Compound: N[C@H](CO)C(=O)O [D-serine]
- induction of DAO1 promoter by D-amino acid [2]: similarly effective

Compound: C[C@H](O)[C@@H](N)C(=O)O [D-threonine]
- induction of DAO1 promoter by D-amino acid [2]: similarly effective

Compound: N[C@H](Cc1c[nH]c2ccccc12)C(=O)O [D-tryptophan]
- induction of DAO1 promoter by D-amino acid [2]: significantly less effective

Compound: CC(C)[C@@H](N)C(=O)O [D-valine]
- induction of DAO1 promoter by D-amino acid [2]: similarly effective

Compound: C[C@H](N)C(=O)O [L-alanine]
- DAO1 mRNA expression ([1]; MinABs medium, substance as the sole nitrogen source, FIG. 4B): negligible
- reduction of luciferase expression ([2]; equal level (70 mM) added as the competitor to 70 mM D-alanine, after 21 hr culture, FIG. 7A): about 5 fold

Compound: N.N.O=S(=O)(O)O [ammonium sulfate]
- effect on D-alanine-induced DAO1in promoter activity ([2]; added to MinABs with 70 mM D-alanine, glucose 10 g/L, ammonium sulfate 70 mM, FIG. 7A): little effect
- effect of concentration on DAO1 promoter activity ([2]; glucose 10-100 g/L, ammonium sulfate 5-50 mM, with 70 mM D-alanine, FIGS. 7C and 7D): only marginal effects

Compound: OCC(O)CO [glycerol]
- DAO1 transcription compared to that of glucose ([1]; substance as the sole carbon source (YPG broth), 6 hour, 28° C., FIG. 4C): enhance DAO1 transcription
